# In patent US8691855B2, “Compounds, isomer thereof, or pharmaceutically acceptable salts thereof as vanilloid receptor antagonist and pharmaceutical compositions containing the same” (Amorepacific Corporation, priority 2008, dated 2014):
# Biological target: T1, vanilloid receptor (Rattus norvegicus, UniProt O35433)
# T1 construct: DRG nerve cells from the primary culture of 2 days were equilibrated; endogenous in cells; host or cells: primary culture of dorsal root ganglion neurons from neonatal SD rats
# T1 sequence (O35433 whole entry): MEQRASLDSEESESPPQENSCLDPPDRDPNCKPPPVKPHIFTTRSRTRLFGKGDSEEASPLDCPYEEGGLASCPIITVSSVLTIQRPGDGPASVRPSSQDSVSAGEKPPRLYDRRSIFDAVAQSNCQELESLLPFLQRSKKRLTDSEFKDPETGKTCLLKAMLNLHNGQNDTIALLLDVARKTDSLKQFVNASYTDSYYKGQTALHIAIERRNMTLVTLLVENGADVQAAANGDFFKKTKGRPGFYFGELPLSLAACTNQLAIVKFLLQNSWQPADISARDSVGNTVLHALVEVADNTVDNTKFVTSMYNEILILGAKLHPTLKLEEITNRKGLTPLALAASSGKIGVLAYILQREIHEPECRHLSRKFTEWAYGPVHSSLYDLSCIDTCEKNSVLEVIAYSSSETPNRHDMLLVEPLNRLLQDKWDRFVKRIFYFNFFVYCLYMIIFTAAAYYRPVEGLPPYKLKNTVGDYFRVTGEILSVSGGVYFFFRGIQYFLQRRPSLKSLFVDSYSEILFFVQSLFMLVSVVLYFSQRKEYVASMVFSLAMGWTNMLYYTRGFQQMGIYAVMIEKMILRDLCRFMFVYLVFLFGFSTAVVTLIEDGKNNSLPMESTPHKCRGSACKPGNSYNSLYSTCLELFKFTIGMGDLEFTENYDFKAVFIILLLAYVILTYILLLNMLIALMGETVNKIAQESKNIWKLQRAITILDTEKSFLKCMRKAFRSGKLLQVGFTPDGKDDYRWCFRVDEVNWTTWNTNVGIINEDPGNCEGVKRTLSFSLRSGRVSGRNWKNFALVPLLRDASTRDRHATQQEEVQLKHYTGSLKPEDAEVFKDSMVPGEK
# Test: 45Ca influx test (antagonist calcium uptake test) in rat DRG neurons stimulated with capsaicin
# Type: cell-based
# Details: DRG neuron; @0.3 μM; neonatal SD rat DRG neurons; capsaicin 0.5 μM; read-out: Antagonist Calcium Uptake Test, percent inhibition of capsaicin response
# Method in brief: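 Neonatal SD rat DRG neurons, cultured 2 days with NGF 200 ng/ml, exposed to test compound plus 0.5 μM capsaicin and 45Ca (10 μCi/ml) in HEPES-buffered Ca/Mg-free HBSS, pH 7.4, 10 min at room temperature. Influx counted by scintillation; activity as percent inhibition of the 0.5 μM capsaicin maximal response.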
row,inhibition at 0.3 µM [%],SMILES
1,96,"C=Cc1cc(CNC(=O)c2ccc(-c3cccc(C(F)(F)F)c3)o2)cc(F)c1NS(C)(=O)=O [Example 105, 5-(3-Trifluoromethyl-phenyl)-furan-2-carboxylic acid 3-fluoro-4-methanesulfonylamino-5-vinyl-benzylamide]"

# Same assay, conditions: DRG neuron; @1 μM; neonatal SD rat DRG neurons; capsaicin 0.5 μM; read-out: Antagonist Calcium Uptake Test, percent inhibition of capsaicin response
row,inhibition at 1 µM [%],SMILES
1,66,"C[C@@H](NC(=O)c1ccc(-c2cc(C3CC3)cc(C(F)(F)F)c2)o1)c1cc(F)c(NS(C)(=O)=O)c(F)c1 [Example 95, 5-(3-Cyclopropyl-5-trifluoromethyl-phenyl)-furan-2-carboxylic acid [1-(3,5-difluoro-4-methanesulfonylamino-phenyl)-ethyl]-amide]"
2,100,"C#Cc1cc(CNC(=O)c2ccc(-c3cccc(C(F)(F)F)c3)o2)cc(F)c1NS(C)(=O)=O [Example 104, 5-(3-Trifluoromethyl-phenyl)-furan-2-carboxylic acid 3-ethynyl-5-fluoro-4-methanesulfonylamino-benzylamide]"

# Same assay, conditions: DRG neuron; @3 μM; neonatal SD rat DRG neurons; capsaicin 0.5 μM; read-out: Antagonist Calcium Uptake Test, percent inhibition of capsaicin response
row,inhibition at 3 µM [%],SMILES
1,84,"Cc1cc(CNC(=O)c2ccc(-c3cccc(C(F)(F)F)c3)o2)cc(F)c1NS(C)(=O)=O [Example 103, 5-(3-Trifluoromethyl-phenyl)-furan-2-carboxylic acid 3-fluoro-4-methanesulfonylamino-5-methyl-benzylamide]"
2,93,"C=Cc1cc(-c2ccc(C(=O)N[C@H](C)c3cc(F)c(NS(C)(=O)=O)c(F)c3)o2)cc(C(F)(F)F)c1 [Example 114, 5-(3-Trifluoromethyl-5-vinyl-phenyl)-furan-2-carboxylic acid [1-(3,5-difluoro-4-methanesulfonylamino-phenyl)-ethyl]-amide]"

# Same assay, conditions: neonatal SD rat DRG neurons; capsaicin 0.5 μM; 45Ca
row,IC50 [nM],SMILES
1,150,"C[C@@H](NC(=O)c1coc(Oc2cccc(C(C)(C)C)c2)n1)c1cc(F)c(NS(C)(=O)=O)c(F)c1 [Example 1, 2-(3-tert-Butyl-phenoxy)-oxazole-4-carboxylic acid [1-(3,5-difluoro-4-methanesulfonylamino-phenyl)-ethyl]-amide]"
2,410,"C[C@@H](NC(=O)c1coc(Oc2cccc(C(F)(F)F)c2)n1)c1cc(F)c(NS(C)(=O)=O)c(F)c1 [Example 2, 2-(3-Trifluoromethyl-phenoxy)-oxazole-4-carboxylic acid [1-(3,5-difluoro-4-methanesulfonylamino-phenyl)-ethyl]-amide]"
3,80,"CC(C)c1cccc(Oc2nc(C(=O)N[C@H](C)c3cc(F)c(NS(C)(=O)=O)c(F)c3)co2)c1 [Example 4, 2-(3-Isopropyl-phenoxy)-oxazole-4-carboxylic acid [1-(3,5-difluoro-4-methanesulfonylamino-phenyl)-ethyl]-amide]"
4,2700,"C[C@@H](NC(=O)c1coc(-c2ccc3ccccc3c2)n1)c1cc(F)c(NS(C)(=O)=O)c(F)c1 [Example 89, 2-Naphthalen-2-yl-oxazole-4-carboxylic acid [1-(3,5-difluoro-4-methanesulfonylamino-phenyl)-ethyl]-amide]"
5,910,"Cc1cccc(-c2nc(C(=O)N[C@H](C)c3cc(F)c(NS(C)(=O)=O)c(F)c3)co2)c1C [Example 90, 2-(2,3-Dimethyl-phenyl)-oxazole-4-carboxylic acid [1-(3,5-difluoro-4-methanesulfonylamino-phenyl)-ethyl]-amide]"
6,1700,"C[C@@H](NC(=O)c1coc(-c2ccc(F)c(C(F)(F)F)c2)n1)c1cc(F)c(NS(C)(=O)=O)c(F)c1 [Example 92, 2-(4-Fluoro-3-trifluoromethyl-phenyl)-oxazole-4-carboxylic acid [1-(3,5-difluoro-4-methanesulfonylamino-phenyl)-ethyl]-amide]"
7,1400,"COc1cc(-c2nc(C(=O)N[C@H](C)c3cc(F)c(NS(C)(=O)=O)c(F)c3)co2)cc(C(F)(F)F)c1 [Example 97, 2-(3-Methoxy-5-trifluoromethyl-phenyl)-oxazole-4-carboxylic acid [1-(3,5-difluoro-4-methanesulfonylamino-phenyl)-ethyl]-amide]"
8,1700,"CSc1cccc(-c2nc(C(=O)N[C@H](C)c3cc(F)c(NS(C)(=O)=O)c(F)c3)co2)c1 [Example 98, 2-(3-Methylsulfanyl-phenyl)-oxazole-4-carboxylic acid [1-(3,5-difluoro-4-methanesulfonylamino-phenyl)-ethyl]-amide]"
9,2000,"Cc1cc(C)cc(-c2nc(C(=O)N[C@H](C)c3cc(F)c(NS(C)(=O)=O)c(F)c3)co2)c1 [Example 99, 2-(3,5-Dimethyl-phenyl)-oxazole-4-carboxylic acid [1-(3,5-difluoro-4-methanesulfonylamino-phenyl)-ethyl]-amide]"
10,520,"C[C@@H](NC(=O)c1ccc(-c2cc(C3CC3)cc(C3CC3)c2)o1)c1cc(F)c(NS(C)(=O)=O)c(F)c1 [Example 108, 5-(3,5-Dicyclopropyl-phenyl)-furan-2-carboxylic acid [1-(3,5-difluoro-4-methanesulfonylamino-phenyl)-ethyl]-amide]"
11,770,"C[C@@H](NC(=O)c1coc(-c2cc(Br)cc(C3CC3)c2)n1)c1cc(F)c(NS(C)(=O)=O)c(F)c1 [Example 115, 2-(3-Bromo-5-cyclopropyl-phenyl)-oxazole-4-carboxylic acid [1-(3,5-difluoro-4-methanesulfonylamino-phenyl)-ethyl]-amide]"
12,160,"CCc1cc(-c2ccc(C(=O)N[C@H](C)c3cc(F)c(NS(C)(=O)=O)c(F)c3)o2)cc(C(F)(F)F)c1 [Example 116, 5-(3-Ethyl-5-trifluoromethyl-phenyl)-furan-2-carboxylic acid [1-(3,5-difluoro-4-methanesulfonylamino-phenyl)-ethyl]-amide]"

# More lines, now with the values behind:
row,SMILES,IC50 [nM]
1,"C[C@H](NC(=O)c1ccc(-c2cccc(C(F)(F)F)c2)o1)c1cc(F)c(NS(C)(=O)=O)c(F)c1 [Example 109, (S)-5-(3-Trifluoromethyl-phenyl)-furan-2-carboxylic acid [1-(3,5-difluoro-4-methanesulfonylamino-phenyl)-ethyl]-amide]",270
2,"CS(=O)(=O)Nc1c(F)cc(CNC(=O)c2ccc(-c3cccc(C(F)(F)F)c3)o2)cc1F [Example 110, 5-(3-Trifluoromethyl-phenyl)-furan-2-carboxylic acid 3,5-difluoro-4-methanesulfonylamino-benzylamide]",620
3,"C[C@@H](NC(=O)c1ccc(-c2cccc(C(F)(F)F)c2)o1)c1ccc(NS(C)(=O)=O)c(F)c1 [Example 111, 5-(3-Trifluoromethyl-phenyl)-furan-2-carboxylic acid [1-(3-fluoro-4-methanesulfonylamino-phenyl)-ethyl]-amide]",240
4,"Cc1cc(CNC(=O)c2ccc(-c3cccc(C(F)(F)F)c3)o2)ccc1NS(C)(=O)=O [Example 112, 5-(3-Trifluoromethyl-phenyl)-furan-2-carboxylic acid 4-methanesulfonylamino-3-methyl-benzylamide]",220
5,"CS(=O)(=O)Nc1c(F)cc(CNC(=O)c2ccc(-c3cccc(C(F)(F)F)c3)o2)cc1C(F)(F)F [Example 113, 5-(3-Trifluoromethyl-phenyl)-furan-2-carboxylic acid 4-methanesulfonylamino-3-fluoro-5-trifluomethyl-benzylamide]",1400
6,"CS(=O)(=O)Nc1c(F)cc(CNC(=O)c2ccc(-c3cccc(C(F)(F)F)c3)o2)cc1C#N [Example 121, 5-(3-Trifluoromethyl-phenyl)-furan-2-carboxylic acid 3-cyano-5-fluoro-4-methanesulfonylamino-benzylamide]",330
7,"CS(=O)(=O)Nc1ccc(CNC(=O)c2cnc(-c3ccc(C(F)(F)F)cc3)s2)cc1F [Example 122, 2-(4-Trifluoromethyl-phenyl)-thiazole-5-carboxylic acid 3-fluoro-4-methanesulfonylamino-benzylamide]",8800
8,"C[C@@H](NC(=O)c1ccc(-c2ccc(F)c(C(F)(F)F)c2)o1)c1cc(F)c(NS(C)(=O)=O)c(F)c1 [Example 124, 5-(4-Fluoro-3-trifluoromethyl-phenyl)-furan-2-carboxylic acid [1-(3,5-difluoro-4-methanesulfonylamino-phenyl)-ethyl]-amide]",42
9,"CS(=O)(=O)Nc1ccc(CNC(=O)c2ccc(-c3ccc(F)c(C(F)(F)F)c3)o2)cc1F [Example 125, 5-(4-Fluoro-3-trifluoromethyl-phenyl)-furan-2-carboxylic acid 3-fluoro-4-methanesulfonylamino-benzylamide]",530
10,"C[C@@H](NC(=O)c1cnc(-c2cc(C(F)(F)F)cc(C(F)(F)F)c2)s1)c1cc(F)c(NS(C)(=O)=O)c(F)c1 [Example 126, 2-(3,5-Bis-trifluoromethyl-phenyl)-thiazole-5-carboxylic acid [1-(3,5-difluoro-4-methanesulfonylamino-phenyl)-ethyl]-amide]",490

# Tested on: Male ICR mice
# Test: Analgesic activity test: mouse writhing test by inducing with phenyl-p-quinone
# Type: in vivo
# Details: po, dose 3 mg/kg, p.o., read-out: Analgesic effect (% Inhibition)
# Experimental: 2. Analgesic Activity Test: Mouse Writhing Test by Inducing with Phenyl-p-quinone Male ICR mice (mean body weight 25 g) were maintained in a controlled lighting environment (12 h on/12 h off) for experiment. Animals received an intraperitoneal injection of 0.3 ml of the chemical irritant phenyl-p-quinone (dissolved in saline containing 5% ethanol to be a close of 4.5 mg/kg) and 6 mins later, the number of abdominal constrictions was counted in the subsequent 6 mins period. Animals (10 animals/group) received 0.2 ml of test compounds solution in vehicle of ethanol/Tween 80/saline (Oct. 10, 1980) intraperitoneally 30 min before the injection of phenyl-p-quinone. In the case of oral administration, 0.2 ml of test compounds solution in vehicle of ethanol/Tween 80/saline (5/5/90) were administered 54 min prior to the 0.2 ml of 0.02% phenyl-p-quinone injection. A reduction in the number of writhes responding to the test drug compound relative to the number responding in saline control group was considered to be indicative of an analgesic effect. Analgesic effect was calculated by % inhibition equation (% inhibition=(C-T)/C×100), wherein C and T represent the number of writhes in control and compound-treated group, respectively.
row,SMILES,inhibition in vivo at 3 mg/kg [%]
1,"C[C@@H](NC(=O)c1coc(Oc2cccc(C(C)(C)C)c2)n1)c1cc(F)c(NS(C)(=O)=O)c(F)c1 [Example 1, 2-(3-tert-Butyl-phenoxy)-oxazole-4-carboxylic acid [1-(3,5-difluoro-4-methanesulfonylamino-phenyl)-ethyl]-amide]",21
2,"C[C@@H](NC(=O)c1coc(Oc2cccc(C(F)(F)F)c2)n1)c1cc(F)c(NS(C)(=O)=O)c(F)c1 [Example 2, 2-(3-Trifluoromethyl-phenoxy)-oxazole-4-carboxylic acid [1-(3,5-difluoro-4-methanesulfonylamino-phenyl)-ethyl]-amide]",32
3,"CC(C)c1cccc(Oc2nc(C(=O)N[C@H](C)c3cc(F)c(NS(C)(=O)=O)c(F)c3)co2)c1 [Example 4, 2-(3-Isopropyl-phenoxy)-oxazole-4-carboxylic acid [1-(3,5-difluoro-4-methanesulfonylamino-phenyl)-ethyl]-amide]",28
